Measurements reported in paper PMC4151706 (Journal of the American Chemical Society, 2014).

Molecular target: HIV-1 protease WT subtype C (Human immunodeficiency virus type 1 group M subtype C, UniProt O12158)
Details: protease variant subtype C

HIV-1 protease WT subtype C, sequence (O12158 485-583): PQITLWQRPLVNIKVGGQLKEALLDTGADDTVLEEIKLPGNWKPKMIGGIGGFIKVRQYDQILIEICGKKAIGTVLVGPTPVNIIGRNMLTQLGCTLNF

**Q.** Which Ki does the source give for `CC(C)CN(C[C@@H](O)[C@H](Cc1ccccc1)NC(=O)O[C@H]1CO[C@H]2OCC[C@H]21)S(=O)(=O)c1ccc(N)cc1` [DRV, Darunavir] here?
**A.** Its Ki is 5 ± 2 pM.
